The results in this text go back to patent publication US10588879B2, “Treatment of age-related macular degeneration” (Aurin Biotech Inc., priority 2011, dated 2020).

Read-outs that look alike come from different tables or passages of the source.

In assay [1] the test system is classical complement pathway. In words: CH50 assay, human serum, sensitized sheep red blood cell hemolysis. The format is cell-based. The conditions noted are these: sensitized sheep red blood cells, 1 hour at 37° C., read-out: IC50, inhibition of human complement-mediated red blood cell hemolysis. How it is done:
To evaluate the strength of blockade of the classical complement pathway by the low molecular weight products of the aurin tricarboxylic acid complex, (i.e. ATA plus AQA plus AHA), the standard CH50 assay was employed. Sheep red blood cells were sensitized by incubation overnight with rabbit anti sheep red blood cell antibody. Then dilutions of serum, with and without various amounts of the low molecular weight aurin tricarboxylic acid fraction (ATAC), were incubated with the sensitized red blood cells for 1 hour at 37° C. The incubates were centrifuged at 5,000 rpm for 10 min. The hemoglobin released into the serum from red blood cells that had been destroyed by complement attack, was determined by reading the optical density (OD) at 405 nm. As a positive control, red blood cells were 100% lysed with water, and as a negative control, no serum was added to the incubate.

Assay [2] concerns the target T1, membrane attack complex (addition of C9 to C5b678) (Homo sapiens, UniProt P02748).
T1 construct: from tissue; host or cells: normal human serum (with antibody-sensitized sheep red blood cells)
Put plainly: Western blot variation of CH50 assay: stage of complement blockade. The format is biochemical. As to conditions: human serum diluted 16 fold, pre-treated 30 min; blots with antibodies to C6, C7, C8, C9. How it is done: Normal human serum was pre-treated with aliquots of aqueous solutions of ATA, AQA, AHA and ATAC prior to adding sheep red blood cells sensitized to human complement. The reaction mixtures were incubated at 37° C. for 1 h. Aliquots were loaded on 10% polyacrylamide gels and subjected to SDS-PAGE. Proteins were transferred to membranes and developed with appropriate primary antibodies to complement proteins (Table 1): FIG. 4A: Western blots of membranes developed with antibodies to C1q, C3, C4 and C5. Lane 1, untreated serum; lane 2, serum with red blood cells added; lane 3 serum with red blood cells protected with ATAC. Notice that in untreated serum, bands for C1q, C3, C4, and C5 were readily detected. In lanes 2 and 3, the activated products C3d, C4d, and C5a were detected indicating opsonization had taken place. […] It can be seen that C5b-9 is […] detected upon probing with C6, C7, C8 and C9, thus establishing that the ATAC block was at the C9 stage. […]
To determine at which stage of assembly of the membrane attack complex was being blocked, additional analyses were carried. […] The C6 antibody detected C5b6, C5b67, and C5b678. The C7 antibody detected C5b67 and C5b678, while the C8 antibody detected C5b678. […]
A general note: In western blotting, separated proteins are transferred to a membrane and probed.

T1 sequence (P02748 22-559, one chain of several): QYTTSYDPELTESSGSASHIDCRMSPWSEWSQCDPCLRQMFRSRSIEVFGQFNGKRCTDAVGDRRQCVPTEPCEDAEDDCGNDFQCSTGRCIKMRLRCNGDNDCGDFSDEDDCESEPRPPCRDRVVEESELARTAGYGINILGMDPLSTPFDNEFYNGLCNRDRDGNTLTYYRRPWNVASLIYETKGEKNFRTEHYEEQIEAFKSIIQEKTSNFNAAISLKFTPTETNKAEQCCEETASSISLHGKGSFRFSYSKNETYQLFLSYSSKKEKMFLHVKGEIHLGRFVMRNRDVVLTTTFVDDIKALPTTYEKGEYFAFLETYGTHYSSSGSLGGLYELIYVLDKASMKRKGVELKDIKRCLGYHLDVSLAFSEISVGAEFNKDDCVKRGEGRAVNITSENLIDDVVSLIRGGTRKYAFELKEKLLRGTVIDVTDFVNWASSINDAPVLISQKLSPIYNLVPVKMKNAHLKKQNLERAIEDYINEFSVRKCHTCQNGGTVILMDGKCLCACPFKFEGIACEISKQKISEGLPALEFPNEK

Turning to “5,5′-((3-carboxy-5-((3-carboxy-4-oxocyclohexa-2,5-dien-1-ylidene)methyl)-4-hydroxybenzyl)-4-hydroxyphenyl)methylene)bis(2-hydroxybenzoic acid) [AHA]”, in assay [1], the half-inhibitory concentration (IC50) – broadly, the point on the concentration scale where inhibition reaches its midpoint – was 559 nM. Moreover, the “stage at which membrane attack complex formation is arrested” value in assay [2] is given as “becomes arrested at the C8 stage”.
On the same counts, the results for `O=C(O)C1=CC(=Cc2cc(C(c3ccc(O)c(C(=O)O)c3)c3ccc(O)c(C(=O)O)c3)cc(C(=O)O)c2O)C=CC1=O` [AQA] are 576 nM and “becomes arrested at the C8 stage”.
As to `O=C(O)C1=CC(=C(c2ccc(O)c(C(=O)O)c2)c2ccc(O)c(C(=O)O)c2)C=CC1=O` [ATA, 5,5′-((3-carboxy-4-oxocyclohexa-2,5-dienn-1-ylidene)methylene)bis(2-hydroxybenzoic acid)], the IC50 in assay [1] (Erythrocyte) was 544 nM.
